Four compounds from patent US9839618B2, “Compositions and methods relating to proliferative diseases” (The Penn State Research Foundation, priority 2010, dated 2017) can be followed below.

Read-outs that look alike come from different tables or passages of the source.

Experiment [1] deals with 1205 Lu metastatic melanoma cells. In words: MTS assay viability IC50, 1205 Lu. It counts as cell-based, human. The settings on record: for IC50: Homo sapiens, 1205Lu; for Selectivity ratio, fibroblasts versus 1205Lu: activity against fibroblasts FF2441 compared to melanoma cells. As for the experimental part: (§1) The efficacy of leelamine to kill other cancer types is measured and the IC50 for cell lines derived from carcinomas of breast, lung, prostate, connective tissue, pancreas and colon determined. The MTS assay as described in Sharma, A. et al., Clin Cancer Res, 2009, 15:1674-85; and Madhunapantula, S. V. et al., Mol Cancer Ther, 2008, 7:1297-308 is used to establish the IC50 at 24, 48 and 72 hours of leelamine treatment for normal human epidermal melanocytes (FOM103), normal skin fibroblast cells (FF2441), normal skin keratinocytes (HFK) and compared to melanocytic lesion cells from the radial-, vertical- and metastatic melanoma stages. 5×10^3 cells per well in 100 μL of media are plated and grown in a 96-well plate for 48 to 72 hours and treated with either DMSO vehicle control or 0.62 to 40 μmol/L of leelamine for 24, 48 or 72 hours. IC50 values for each compound in μmol/L for respective cell lines are measured from three independent experiments using GraphPad Prism version 4.01 (GraphPad Software, La Jolla, Calif.). Leelamine is found to be not toxic to normal cells and effective to kill melanoma cells as well as non-melanoma cancer cells as shown in Table 1 in FIG. 20. Leelamine is 3- to 4-fold more specific at killing metastatic melanoma than normal cells, supporting cancer therapeutic utility at concentrations<2 μmol/L.
(§2) 5×10^3 cells per well in 100 μL of media are plated and grown in a 96-well plate for 48 to 72 hours and treated with either DMSO vehicle control or 0.62 to 40 μmol/L of leelamine for 24, 48 or 72 hours. IC50 values for each compound in μmol/L for respective cell lines are measured from three independent experiments using GraphPad Prism version 4.01 (GraphPad Software, La Jolla, Calif.).
(§3) The IC50 and effect of liposomal preparations of leelamine on viability of normal human melanocytes, fibroblasts and melanoma cells UACC 903 and 1205 Lu are measured using the MTS assay (Promega, Madison, Wis.). Empty liposomes or liposomes containing abietic acid are used as controls. 5×10^3 cells per well in 100 μL of media are plated and grown in a 96-well plate for 48 or 72 hours for melanoma and normal cell lines, respectively. The cells are then treated with 0.62 to 40 μmol/L of liposome alone, a liposomal preparation of abietic acid, or with Nanolipolee-007 for 24 hours. IC50 values for each liposome in μmol/L for respective cell lines are measured from three independent experiments using GraphPad Prism version 4.01 (GraphPad Software, La Jolla, Calif.). Nanolipolee-007 retains the growth inhibitory activity of leelamine in killing melanoma cells in culture and specifically kills melanoma cells compared to normal cells, FIG. 24.
(§4) Dehydroabietylamine, its N-substituted derivatives and the corresponding dihydroabietylamine and its N-substituted derivatives are tested for their capability to inhibit cell growth of cancer cell lines, including melanoma (UACC 903, 1205Lu), breast (MCF-7), fibrosarcoma (HT-1080), colon (Caco-2), and prostate (PC-3) cancer cell lines. Viability and IC50 of normal human fibroblasts and cell lines from melanoma and other malignancies following treatment with all the agents are measured using the MTS assay (Promega, Madison, Wis.). Human fibroblast FF2441 cells, metastatic melanoma cell lines 1205 Lu and UACC 903 as well as cancer cell lines representing sarcoma (HT-1080), prostate (PC-3, LNCaP), breast (MCF-7) and lung (A-549) are maintained in DMEM (Invitrogen, Carlsbad, Calif.) supplemented with 10% FBS (Hyclone, Logan, Utah) in a 5% CO2 atmosphere, humidified 37° C. incubator. 5×10^3 cells per well in 100 μL of media are plated and grown in a 96-well plate for 48 to 72 h and treated with either DMSO vehicle control or 0.62 to 40 μmol/L for 24, 48 or 72 h. IC50 values for each compound in […] for respective cell lines are measured from three independent experiments using GraphPad Prism version 4.01 (GraphPad Software, La Jolla, Calif.). […]
On the technique in general: Tetrazolium dyes change colour on reduction, which living cells bring about.

Experiment [2] concerns cancer cell line. Kind of experiment: MTS assay viability IC50, A-459. It counts as cell-based. The settings on record: A459; Table 5; read-out: IC50 Liver (A-459). As for the experimental part:
(§5) Dehydroabietylamine, its N-substituted derivatives and the corresponding dihydroabietylamine and its N-substituted derivatives are tested for their capability to inhibit cell growth of cancer cell lines, including melanoma (UACC 903, 1205Lu), breast (MCF-7), fibrosarcoma (HT-1080), colon (Caco-2), and prostate (PC-3) cancer cell lines. Viability and IC50 of normal human fibroblasts and cell lines from melanoma and other malignancies following treatment with all the agents are measured using the MTS assay (Promega, Madison, Wis.). Human fibroblast FF2441 cells, metastatic melanoma cell lines 1205 Lu and UACC 903 as well as cancer cell lines representing sarcoma (HT-1080), prostate (PC-3, LNCaP), breast (MCF-7) and lung (A-549) are maintained in DMEM (Invitrogen, Carlsbad, Calif.) supplemented with 10% FBS (Hyclone, Logan, Utah) in a 5% CO2 atmosphere, humidified 37° C. incubator. 5×10^3 cells per well in 100 μL of media are plated and grown in a 96-well plate for 48 to 72 h and treated with either DMSO vehicle control or 0.62 to 40 μmol/L for 24, 48 or 72 h. IC50 values for each compound in […] for respective cell lines are measured from three independent experiments using GraphPad Prism version 4.01 (GraphPad Software, La Jolla, Calif.). FIG. 52 is a graph showing IC50 values for leelamine and compounds 4a, 4b and 5a in treated fibroblasts (FF2441) compared to melanoma cells. Selectivity ratio here is defined as ratio of activity against fibroblasts compared to activity against melanoma cells. Leelamine is relatively selective with a ratio of >6 and >4 for UACC903 and 1205Lu melanoma cells. The selectivity ratio of compound 4a is ˜4 and ˜3 for UACC903 and 1205Lu and for compound 4b is ˜4 for both cell lines. The selectivity ratio of compound 5a is ˜4 for UACC903 and >2 for 1205Lu cells.

Experiment [3] concerns FF2441 normal human fibroblasts. In words: MTS assay viability IC50, normal fibroblasts. It counts as cell-based. As for the experimental part: as §1
5×10^3 cells per well in 100 μL of media are plated and grown in a 96-well plate for 48 to 72 hours and treated with either DMSO vehicle control or 0.62 to 40 μmol/L of leelamine for 24, 48 or 72 hours. IC50 values for each compound in μmol/L for respective cell lines are measured from three independent experiments using GraphPad Prism version 4.01 (GraphPad Software, La Jolla, Calif.). […]
as §5

Experiment [4] relates to UACC 903 metastatic melanoma cells. Kind of experiment: MTS assay viability IC50, UACC 903. The settings on record: for IC50: Homo sapiens, UACC-903; for Selectivity ratio, fibroblasts versus UACC903: activity against fibroblasts FF2441 compared to melanoma cells. It counts as cell-based, human. As for the experimental part: as §1, §2, §3, §4
Where [5] appears, read: Table 4, read-out: IC50 Metastatic Melanoma Cell line 1205Lu.
Setting [6] is: Table 6, read-out: IC50 Metastatic melanoma 1205 Lu.
[7] abbreviates: Homo sapiens, FF2441, Table 5, read-out: IC50 Fibroblast FF2441.
Where [8] appears, read: Table 4, read-out: IC50 Metastatic Melanoma Cell line UACC903.
Setting [9] is: Table 5, read-out: IC50 Melanoma (UACC903).
The mark [10] stands for this setting: Table 6, read-out: IC50 Metastatic melanoma UACC 903.
The mark [11] stands for this setting: Table 7, read-out: IC50 (UACC903).

What is called IC50 is the midpoint of a concentration-inhibition curve.

Turning to `CC(C)C1=CC2=CCC3[C@](C)(CCC[C@@]3(C)C(=O)O)C2CC1` (stereo partly drawn) [Abietic acid, (1R,4aR)-1,4a-dimethyl-7-(propan-2-yl)-1,2,3,4,4a,4b,5,6,10,10a-decahydrophenanthrene-1-carboxylic acid, reference compound], the IC50 was > 100000 nM in experiment [1] (setting [5]); > 100000 nM in experiment [1] (setting [6]); > 100000 nM in experiment [2]; > 100000 nM in experiment [3] (Homo sapiens, FF2441, Table 4, read-out: IC50 Normal fibroblast FF2441); > 100000 nM in experiment [3] (setting [7]); > 100000 nM in experiment [3] (Table 6, read-out: IC50 Normal fibroblast FF2441). The half-inhibitory concentration (IC50) in experiment [4] (setting [8]), in experiment [4] (setting [9]), in experiment [4] (setting [10]) and in experiment [4] (setting [11]) was > 100000 nM throughout.
Consider `CC(C)C1=CC2=CCC3[C@](C)(CN)CCC[C@]3(C)C2CC1` (stereo partly drawn) [Compound 4a, {[(1R,4aR)-1,4a-dimethyl-7-(propan-2-yl)-1,2,3,4,4a,4b,5,6,10,10a-decahydrophenanthren-1-yl]methyl}amine], for which the concentration for half-maximal inhibition (IC50) in experiment [1] (Example 8, read-out: IC50 1205Lu) came out at 2870 nM; in experiment [1] (setting [5]) it was 2870 ± 70 nM; in experiment [1] (setting [6]) it was 2870 ± 70 nM; in experiment [2], 19000 ± 3870 nM; in experiment [3] (setting [7]) it was 8330 ± 430 nM; in experiment [4] (Example 8, read-out: IC50 UACC 903), 2130 nM. Also, the IC50 in experiment [4] (setting [8]) stood at 2130 ± 190 nM; in experiment [4] (setting [9]), 2360 ± 250 nM; in experiment [4] (setting [10]) it was 2130 ± 190 nM; in experiment [4] (setting [11]), 2130 nM. Moreover, the “Selectivity ratio, fibroblasts versus 1205Lu” value in experiment [1] was ~3. In addition, the “Selectivity ratio, fibroblasts versus UACC903” value in experiment [4] is recorded as ~4.
With `CC(C)c1ccc2c(c1)CCC1[C@](C)(CNC(=O)C(F)(F)F)CCC[C@]21C` (stereo partly drawn) [Compound 5a, N-{[(1R,4aS)-1,4a-dimethyl-7-(propan-2-yl)-1,2,3,4,4a,9,10,10a-octahydrophenanthren-1-yl]methyl}-2,2,2-trifluoroacetamide], the half-maximal inhibitory concentration (IC50) came out at 2080 ± 50 nM in experiment [1] (setting [5]); 2080 ± 50 nM in experiment [1] (setting [6]); 9700 ± 1340 nM in experiment [2]; 5170 ± 20 nM in experiment [3] (setting [7]); 1280 ± 50 nM in experiment [4] (setting [8]); 1280 ± 50 nM in experiment [4] (setting [9]). The half-maximal inhibitory concentration (IC50) in experiment [4] (setting [10]) is 1280 ± 50 nM; in experiment [4] (setting [11]) it was 1280 nM. In addition, the “Selectivity ratio, fibroblasts versus 1205Lu” value in experiment [1] is > 2. For the same compound, the “Selectivity ratio, fibroblasts versus UACC903” value in experiment [4] was ~4.
In the case of `CC(C)c1ccc2c(c1)CCC1[C@](C)(CN)CCC[C@]21C` (stereo partly drawn) [Leelamine, [(1R,4aS)-1,4a-dimethyl-7-(propan-2-yl)-1,2,3,4,4a,9,10,10a-octahydrophenanthren-1-yl]methanamine], the IC50 in experiment [1] (setting [6]) turned out to be 1930 ± 160 nM; in experiment [2], 9270 ± 1430 nM; in experiment [3] (setting [7]) it was 8910 ± 570 nM; in experiment [4] (setting [9]), 1350 ± 500 nM; in experiment [4] (setting [10]), 1350 ± 50 nM; in experiment [4] (setting [11]) it was 1350 nM. For the same compound, the “Selectivity ratio, fibroblasts versus 1205Lu” value in experiment [1] was > 4. Further, the “Selectivity ratio, fibroblasts versus UACC903” value in experiment [4] was > 6.
